Key:
[1] = molecular target: human orexin 2 receptor (Homo sapiens (Human), UniProt O43614); assay: Human orexin 2 receptor radioligand binding ([3H]-EMPA); conditions: HEK293 stably expressing human orexin 2 receptor; [3H]-EMPA; apparent Ki; read-out: hOX2 Ki
Description: After centrifugation (2K×G, 5 min at 4° C.), the supernatant was aspirated and the pellets frozen and stored at −80° C. […] Each cell pellet from a 15 cm plate was resuspended in 10 mL, stored on ice, and homogenized for 45 sec just prior to addition to the reactions. Competition binding experiments in 96 well polypropylene plates were performed using [^3H]-EMPA (Moraveck Corporation, specific activity=29.6 Ci/mmol), diluted to a 5 nM concentration in PBS (2 nM final concentration). […] The final concentration of DMSO in the reactions is equal to or less than 0.1%. Total and nonspecific binding was determined in the absence and presence of […]. The total volume of each reaction is 200 μL (20 μL of diluted compounds, 80 μL of [^3H]-EMPA diluted in PBS and 100 μL of the cell suspension).
The plates were washed 3 times by aspirating 30 ml PBS through the plates. Plates were dried in 55° C. oven for 60 min, scintillation fluid was added, and the radioactivity was counted on a Topcount (Packard).

[2] = molecular target: rat orexin 1 receptor (Rattus norvegicus, UniProt P56718); assay: Rat orexin 1 receptor radioligand binding; conditions: HEK293 cells stably expressing rat orexin 1 receptor; apparent Ki; read-out: rOX1 Ki
Description: After centrifugation (2K×G, 5 min at 4° C.), the supernatant was aspirated and the pellets frozen and stored at −80° C. […] Each cell pellet from a 15 cm plate was resuspended in 10 mL, stored on ice, and homogenized for 45 sec prior to addition to the reactions. Competition binding experiments in 96 well polypropylene plates were performed using [^3H]-(1-(5-(2-fluoro-phenyl)-2-methyl-thiazol-4-yl)-1-((S)-2-(5-phenyl-(1,3,4)oxadiazol-2-ylmethyl)-pyrrolidin-1-yl)-methanone) (Moraveck Corporation, specific activity=35.3 Ci/mmol), diluted to a 10 nM concentration in PBS (4 nM final). […] The final concentration of DMSO in the reactions is equal to or less than 0.1%. Total and nonspecific binding was determined in the absence and presence of 10 μM almorexant. The total volume of each reaction is 200 μL (20 μL of diluted compounds, 80 μL of [3H]-(1-(5-(2-fluoro-phenyl)-2-methyl-thiazol-4-yl)-1-((S)-2-(5-phenyl-(1,3,4)oxadiazol-2-ylmethyl)-pyrrolidin-1-yl)-methanone) diluted in PBS and 100 μL of the cell suspension). […] The plates were washed 3 times by aspirating 30 ml PBS through the plates. Plates were dried in 55° C. oven for 60 min, scintillation fluid was added, and the radioactivity was counted on a Topcount (Packard).

Sequence of human orexin 2 receptor (O43614 whole entry): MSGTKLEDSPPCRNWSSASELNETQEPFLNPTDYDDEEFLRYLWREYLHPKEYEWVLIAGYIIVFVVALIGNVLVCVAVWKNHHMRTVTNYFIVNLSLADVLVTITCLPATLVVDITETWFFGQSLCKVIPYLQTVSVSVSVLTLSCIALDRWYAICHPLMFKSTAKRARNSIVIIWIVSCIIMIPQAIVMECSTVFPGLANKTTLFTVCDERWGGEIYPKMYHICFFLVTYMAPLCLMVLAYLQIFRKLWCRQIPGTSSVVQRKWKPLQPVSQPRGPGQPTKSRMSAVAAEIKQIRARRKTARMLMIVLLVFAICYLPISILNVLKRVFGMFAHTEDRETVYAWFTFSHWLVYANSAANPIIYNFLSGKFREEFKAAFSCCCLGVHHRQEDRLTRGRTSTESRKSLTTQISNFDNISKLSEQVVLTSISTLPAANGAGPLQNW

SMILES: Cc1ccc(-c2ncccn2)c(C(=O)N2CCC[C@@H](Nc3cc(C)nc(C(F)(F)F)n3)[C@@H]2C)c1 (racemic) [Example 7, (±)-trans-(5-methyl-2-(pyrimidin-2-yl)phenyl)(2-methyl-3-((6-methyl-2-(trifluoromethyl)pyrimidin-4-yl)amino)piperidin-1-yl)methanone]
- Ki [1]: 228 nM

SMILES: CCOc1ccc(C)nc1C(=O)N1CCC[C@@H](Nc2ccc(C(F)(F)F)cn2)[C@@H]1C (racemic) [Example 16, (±)-trans-(3-ethoxy-6-methylpyridin-2-yl)(2-methyl-3-((5-(trifluoromethyl)pyridin-2-yl)amino)piperidin-1-yl)methanone]
- Ki [1]: 680 nM

SMILES: C[C@H]1[C@H](Nc2ccc(C(F)(F)F)cn2)CCCN1C(=O)c1ncccc1-n1nccn1 (racemic) [Example 21, (±)-trans-(3-(2H-1,2,3-triazol-2-yl)pyridin-2-yl)(2-methyl-3-((5-(trifluoromethyl)pyridin-2-yl)amino)piperidin-1-yl)methanone]
- Ki [1]: 595 nM

SMILES: C[C@H]1[C@H](Nc2ccc(C(F)(F)F)cn2)CCCN1C(=O)c1cc(F)ccc1-n1nccn1 (racemic) [Example 24, (±)-trans-(5-fluoro-2-(2H-1,2,3-triazol-2-yl)phenyl)(2-methyl-3-((5-(trifluoromethyl)pyridin-2-yl)amino)piperidin-1-yl)methanone]
- Ki [1]: 324 nM

SMILES: COc1c(F)cccc1C(=O)N1CCC[C@@H](Nc2ccc(C(F)(F)F)cn2)[C@@H]1C (racemic) [Example 28, (±)-trans-(3-fluoro-2-methoxyphenyl)(2-methyl-3-((5-(trifluoromethyl)pyridin-2-yl)amino)piperidin-1-yl)methanone]
- Ki [2]: 496 nM
- Ki [1]: 3900 nM

SMILES: Cc1cnc(N[C@@H]2CCCN(C(=O)c3ccccc3-n3nccn3)[C@H]2C)nc1 (racemic) [Example 31, (±)-trans-(2-(2H-1,2,3-triazol-2-yl)phenyl)(2-methyl-3-((5-methylpyrimidin-2-yl)amino)piperidin-1-yl)methanone]
- Ki [1]: 508 nM

SMILES: C[C@H]1[C@H](Nc2ccc(Cl)cn2)CCCN1C(=O)c1ccccc1-n1nccn1 (racemic) [Example 32, (±)-trans-(2-(2H-1,2,3-triazol-2-yl)phenyl)(3-((5-chloropyridin-2-yl)amino)-2-methylpiperidin-1-yl)methanone]
- Ki [1]: 286 nM

SMILES: C[C@H]1[C@H](Nc2ccccn2)CCCN1C(=O)c1ccccc1-n1nccn1 (racemic) [Example 36, (±)-trans-(2-(2H-1,2,3-triazol-2-yl)phenyl)(2-methyl-3-(pyridin-2-ylamino)piperidin-1-yl)methanone]
- Ki [2]: 690 nM
- Ki [1]: 1500 nM

SMILES: C[C@H]1[C@H](Nc2ncc3ccccc3n2)CCCN1C(=O)c1ccccc1-n1nccn1 (racemic) [Example 39, (±)-trans-(2-(2H-1,2,3-triazol-2-yl)phenyl)(2-methyl-3-(quinazolin-2-ylamino)piperidin-1-yl)methanone]
- Ki [1]: 189 nM

SMILES: C[C@H]1[C@H](Nc2ncc(F)cn2)CCCN1C(=O)c1ccccc1-n1nccn1 (racemic) [Example 40, (±)-trans-(2-(2H-1,2,3-triazol-2-yl)phenyl)(3-((5-fluoropyrimidin-2-yl)amino)-2-methylpiperidin-1-yl)methanone]
- Ki [2]: 870 nM
- Ki [1]: 822 nM

SMILES: CCOc1ccccc1C(=O)N1CCC[C@@H](Nc2nc3cc(Cl)ccc3o2)[C@@H]1C (racemic) [Example 46, (±)-trans-(3-((5-chlorobenzo[d]oxazol-2-yl)amino)-2-methylpiperidin-1-yl)(2-ethoxyphenyl)methanone]
- Ki [1]: 489 nM

SMILES: COc1c(F)cccc1C(=O)N1CCC[C@@H](Nc2nc3cc(Cl)ccc3o2)[C@@H]1C (racemic) [Example 47, (±)-trans-(3-((5-chlorobenzo[d]oxazol-2-yl)amino)-2-methylpiperidin-1-yl)(3-fluoro-2-methoxyphenyl)methanone]
- Ki [2]: 373 nM
- Ki [1]: 1300 nM

SMILES: C[C@H]1[C@H](Nc2cnc3ccccc3n2)CCCN1C(=O)c1ccccc1-n1nccn1 (racemic) [Example 48, (±)-trans-(2-(2H-1,2,3-triazol-2-yl)phenyl)(2-methyl-3-(quinoxalin-2-ylamino)piperidin-1-yl)methanone]
- Ki [1]: 96 nM

SMILES: COc1c(F)cccc1C(=O)N1CCC[C@@H](Nc2cnc3ccccc3n2)[C@@H]1C (racemic) [Example 50, (±)-trans-(3-fluoro-2-methoxyphenyl)(2-methyl-3-(quinoxalin-2-ylamino)piperidin-1-yl)methanone]
- Ki [2]: 396 nM
- Ki [1]: 353 nM

SMILES: C[C@H]1[C@H](Nc2nccc(-c3ccccc3)n2)CCCN1C(=O)c1ccccc1-n1nccn1 (racemic) [Example 51, (±)-trans-(2-(2H-1,2,3-triazol-2-yl)phenyl)(2-methyl-3-((4-phenylpyrimidin-2-yl)amino)piperidin-1-yl)methanone]
- Ki [1]: 2100 nM

SMILES: COc1c(F)cccc1C(=O)N1CCC[C@@H](Nc2nccc(-c3ccccc3)n2)[C@@H]1C (racemic) [Example 52, (±)-trans-(3-fluoro-2-methoxyphenyl)(2-methyl-3-((4-phenylpyrimidin-2-yl)amino)piperidin-1-yl)methanone]
- Ki [1]: 2700 nM

SMILES: CCOc1ccccc1C(=O)N1CCC[C@@H](Nc2nccc(-c3ccccc3)n2)[C@@H]1C (racemic) [Example 53, (±)-trans-(2-ethoxyphenyl)(2-methyl-3-((4-phenylpyrimidin-2-yl)amino)piperidin-1-yl)methanone]
- Ki [1]: 58 nM

SMILES: CCOc1ccccc1C(=O)N1CCC[C@@H](Nc2nc3cc(Cl)ccc3o2)[C@H]1C (racemic) [Example 61, (±)-cis-(3-((5-chlorobenzo[d]oxazol-2-yl)amino)-2-methylpiperidin-1-yl)(2-ethoxyphenyl)methanone]
- Ki [1]: 2500 nM

SMILES: C[C@@H]1[C@H](Nc2cnc3ccccc3n2)CCCN1C(=O)c1ccccc1-n1nccn1 (racemic) [Example 63, (±)-cis-(2-(2H-1,2,3-triazol-2-yl)phenyl)(2-methyl-3-(quinoxalin-2-ylamino)piperidin-1-yl)methanone]
- Ki [1]: > 10000 nM

SMILES: C[C@@H]1[C@H](Nc2nccc(-c3ccccc3)n2)CCCN1C(=O)c1ccccc1-n1nccn1 (racemic) [Example 66, (±)-cis-(2-(2H-1,2,3-triazol-2-yl)phenyl)(2-methyl-3-((4-phenylpyrimidin-2-yl)amino)piperidin-1-yl)methanone]
- Ki [1]: 1800 nM

SMILES: COc1c(F)cccc1C(=O)N1CCC[C@@H](Nc2nccc(-c3ccccc3)n2)[C@H]1C (racemic) [Example 67, (±)-cis-(3-fluoro-2-methoxyphenyl)(2-methyl-3-((4-phenylpyrimidin-2-yl)amino)piperidin-1-yl)methanone]
- Ki [1]: > 10000 nM

SMILES: CCOc1ccccc1C(=O)N1CCC[C@@H](Nc2nccc(-c3ccccc3)n2)[C@H]1C (racemic) [Example 68, (±)-cis-(2-ethoxyphenyl)(2-methyl-3-((4-phenylpyrimidin-2-yl)amino)piperidin-1-yl)methanone]
- Ki [1]: > 10000 nM

SMILES: C[C@H]1[C@H](Nc2ccc(Cl)cn2)CCCN1C(=O)c1ccccc1-n1nccn1 [Example 100, (2-(2H-1,2,3-triazol-2-yl)phenyl)((2S,3R)-3-((5-chloropyridin-2-yl)amino)-2-methylpiperidin-1-yl)methanone]
- Ki [1]: 207 nM
